Legend:
L6 = experiment: Cytotoxicity against rat L6 cells; assay type: cell-based
[1] = Selectivity index, ratio of IC50 for rat L6 cells to IC50 for Leishmania donovani MHOMET-67/L82; assay type: toxicity, cell-based; details: read-out: Ratio IC50
[2] = test system: Trypanosoma brucei rhodesiense; experiment: Antiprotozoal activity against Trypanosoma brucei rhodesiense STIB900; assay type: functional, organism-based
[3] = Selectivity index, ratio of IC50 for rat L6 cells to IC50 for Trypanosoma brucei rhodesiense STIB900; assay type: toxicity, cell-based; details: read-out: Ratio IC50
[4] = Selectivity index, ratio of IC50 for rat L6 cells to IC50 for chloroquine and pyrimethamine-resistant Plasmodium falciparum K1; assay type: toxicity, cell-based; details: read-out: Ratio IC50
[5] = Selectivity index, ratio of IC50 for rat L6 cells to IC50 for Trypanosoma cruzi Tulahuen C2C4; assay type: toxicity, cell-based; details: read-out: Ratio IC50
Trypanosoma cruzi = experiment: Antiprotozoal activity against Trypanosoma cruzi Tulahuen C2C4; assay type: functional, organism-based
Leishmania donovani = experiment: Antiprotozoal activity against Leishmania donovani MHOMET-67/L82; assay type: functional, organism-based
Plasmodium falciparum = experiment: Antiprotozoal activity against chloroquine and pyrimethamine-resistant Plasmodium falciparum K1; assay type: functional, organism-based

SMILES	IC50 (L6)	selectivity ratio [1]	IC50 [2]	selectivity ratio [3]	selectivity ratio [4]	selectivity ratio [5]	IC50 (Trypanosoma cruzi)	IC50 (Leishmania donovani)	IC50 (Plasmodium falciparum)
CN1/C(=C/C=C/c2oc3ccccc3[n+]2C)Oc2ccccc21	3760 nM	17.8	707 nM	5.3	98.5	35.6	106 nM	211 nM	38 nM
Cc1ccc2c(c1)N(C)/C(=C/C=C/c1oc3ccccc3[n+]1C)O2	1140 nM	50.5	48 nM	23.8	12.6	57.7	19 nM	22 nM	90 nM
Cc1ccc2c(c1)N(C)/C(=C/C=C/c1oc3ccc(C)cc3[n+]1C)O2	230 nM	42.5	54 nM	4.3	17			5 nM	14 nM
CN1/C(=C/C=C/c2oc3ccccc3[n+]2C)Oc2ccc(Cl)cc21	23900 nM	16.3	5840 nM	4.1	25.8	3.1	7750 nM	1460 nM	925 nM
Cc1ccc2oc(/C=C/C=C3\Oc4ccc(Cl)cc4N3C)[n+](C)c2c1	7580 nM	68.6	136 nM	55.7	16.2	5.5	1370 nM	110 nM	468 nM
CN1/C(=C/C=C/c2oc3ccc(Cl)cc3[n+]2C)Oc2ccc(Cl)cc21	35900 nM	6.7	5200 nM	6.9	6	0.8	47800 nM	5320 nM	6030 nM
CN1/C(=C/C=C/c2oc3ccccc3[n+]2C)Sc2ccccc21	849 nM	9.5	185 nM	4.6	303	75.8	11 nM	90 nM	2 nM
Cc1ccc2c(c1)N(C)/C(=C/C=C/c1oc3ccccc3[n+]1C)S2	146 nM	10.8	113 nM	1.3	13.5			14 nM	11 nM
Cc1ccc2oc(/C=C/C=C3\Sc4ccccc4N3C)[n+](C)c2c1	121 nM	3	496 nM	0.2	7.5			40 nM	16 nM
Cc1ccc2c(c1)N(C)/C(=C/C=C/c1oc3ccc(C)cc3[n+]1C)S2	94 nM	9	39 nM	2.4	12			10 nM	8 nM
CN1/C(=C/C=C/c2oc3ccc(Cl)cc3[n+]2C)Sc2ccccc21	3400 nM	55.4	13 nM	266	166	12	284 nM	61 nM	20 nM
Cc1ccc2oc(/C=C/C=C3\Sc4ccc(Cl)cc4N3C)[n+](C)c2c1	1180 nM	13.3	62 nM	19.2	60	10.9	109 nM	89 nM	20 nM
CN1/C(=C/C=C/c2oc3ccccc3[n+]2C)Sc2ccc(Cl)cc21	2280 nM	19	266 nM	8.6	178	6.4	355 nM	120 nM	13 nM
CN1/C(=C/C=C/c2oc3ccc(Cl)cc3[n+]2C)Sc2ccc(Cl)cc21	2980 nM	35.3	129 nM	23.1	141	1	2860 nM	85 nM	21 nM
CCN1/C(=C/C=C/c2oc3ccc(C)cc3[n+]2C)Sc2ccc(F)cc21	655 nM	44	285 nM	2.3	66	24	27 nM	15 nM	10 nM
Cc1ccc2oc(/C=C/C=C3\Sc4ccc(F)cc4N3C)[n+](C)c2c1	1490 nM	72.6	180 nM	8.3	145	194	8 nM	21 nM	10 nM

SMILES	IC50 (L6)	selectivity ratio [1]	IC50 [2]	selectivity ratio [3]	selectivity ratio [4]	selectivity ratio [5]	IC50 (Trypanosoma cruzi)	IC50 (Leishmania donovani)	IC50 (Plasmodium falciparum)
CCN1/C(=C/C=C/c2oc3ccc(Cl)cc3[n+]2C)Sc2ccc(F)cc21	3100 nM	29.1	850 nM	3.6	218	3.6	853 nM	106 nM	14 nM
CN1/C(=C/C=C/c2oc3ccccc3[n+]2C)Sc2ccc(F)cc21	1070 nM	16.1	867 nM	1.2	201	5.7	186 nM	67 nM	5 nM
CCN1/C(=C/C=C/c2oc3ccccc3[n+]2C)Sc2ccc(F)cc21	1510 nM	27.9	841 nM	1.8	586	5.7	262 nM	54 nM	3 nM
CN1/C(=C/C=C/c2sc3ccccc3[n+]2C)Sc2ccccc21	338 nM	63	115 nM	2.9	126	63	5 nM	5 nM	3 nM
CN1/C(=C/C=C/c2sc3ccccc3[n+]2C)Sc2ccc(Cl)cc21	331 nM	5.2	64 nM	5.2	45	45	7 nM	64 nM	7 nM
CN1/C(=C/C=C/c2sc3ccc(Cl)cc3[n+]2C)Sc2ccc(Cl)cc21	1080 nM	119	18 nM	59.6	477	0.2	7080 nM	9 nM	2 nM
CN1/C(=C/C=C/c2sc3ccccc3[n+]2C)Sc2ccc(F)cc21	483 nM	6.1	394 nM	1.2	94.5			79 nM	5 nM
CCN1/C(=C/C=C/c2sc3ccccc3[n+]2C)Sc2ccc(F)cc21	240 nM	2.2	452 nM	0.5	32.3			111 nM	7 nM
CN1/C(=C/C=C/c2sc3ccc(F)cc3[n+]2C)Sc2ccc(F)cc21	699 nM	35.8	262 nM	2.7	477	0.2	2910 nM	20 nM	2 nM
CCN1/C(=C/C=C/c2sc3ccc(F)cc3[n+]2CC)Sc2ccc(F)cc21	849 nM	30.9	769 nM	1.1	371	0.7	1170 nM	28 nM	2 nM
Cn1/c(=N/C=C/c2sc3ccccc3[n+]2C)sc2ccccc21	2730 nM	255	21 nM	128	340	170	16 nM	11 nM	8 nM
Cn1/c(=N/C=C/c2sc3ccc(Cl)cc3[n+]2C)sc2ccccc21	649 nM	88.3	10 nM	66.3	132	1.3	509 nM	7 nM	5 nM
Cn1/c(=N/C=C/c2sc3ccc(F)cc3[n+]2C)sc2ccccc21	5840 nM	191	370 nM	15.8	153	9	648 nM	31 nM	38 nM
Cn1/c(=N\N/C=C/c2sc3ccccc3[n+]2C)sc2ccccc21	21100 nM	1.6	3830 nM	5.5	3	1.7	12400 nM	13100 nM	7020 nM
Cn1/c(=N\N/C=C/c2sc3ccc(Cl)cc3[n+]2C)sc2ccccc21	10800 nM	1.3	2970 nM	3.6	4.2	1	11400 nM	8340 nM	2600 nM
Cn1/c(=N\N/C=C/c2sc3ccc(F)cc3[n+]2C)sc2ccccc21	15500 nM	1.5	4450 nM	3.5	2.5	1.3	11800 nM	10200 nM	6140 nM

— ChEMBL document CHEMBL3217673, “Synthesis of cyanine dyes and investigation of their in vitro antiprotozoal activities” (Medchemcomm, 2012)
